Assay results taken from the NIST ThermoML archive (doi:10.1021/je600557n).

Assays:
[1] = xn = mol fraction of the nth substance listed; conditions: 101 kPa, Liquid
[2] = molar heat capacity at constant pressure; xn = mol fraction of the nth substance listed; conditions: 101 kPa, Liquid, Small sample (50 mg) DSC
[3] = refractive index (Na D-line) (dimensionless); xn = mol fraction of the nth substance listed; conditions: 101 kPa, Liquid, Standard Abbe refractometry

CC1CCCO1 (centres undefined) [2-methyltetrahydrofuran] + C[S+](C)[O-]
Conditions | mass density, [1] [kg/m3] | molar heat capacity at constant pressure, [2] [J/K/mol] | refractive index, [3] | viscosity, [1] [mPa·s]
293.15 K, x2 = 0.0675 | 865.78 | – | 1.4121 | 0.537
293.15 K, x2 = 0.1033 | – | 155.2 | – | –
293.15 K, x2 = 0.1168 | 875.28 | – | 1.4152 | 0.561
293.15 K, x2 = 0.1368 | – | 155.1 | – | –
293.15 K, x2 = 0.2208 | 896.02 | – | 1.4215 | 0.631
293.15 K, x2 = 0.2714 | – | 155 | – | –
293.15 K, x2 = 0.3228 | 917.54 | – | 1.4282 | 0.719
293.15 K, x2 = 0.3775 | – | 154.6 | – | –
293.15 K, x2 = 0.4044 | 935.66 | – | 1.4336 | 0.78
293.15 K, x2 = 0.4694 | 950.78 | – | 1.438 | 0.876
293.15 K, x2 = 0.4881 | – | 154.2 | – | –
293.15 K, x2 = 0.5058 | 959.5 | – | 1.4407 | 0.926
293.15 K, x2 = 0.5877 | – | 153.8 | – | –
293.15 K, x2 = 0.5888 | 980.16 | – | 1.4468 | 1.047
293.15 K, x2 = 0.6274 | – | 153.6 | – | –
293.15 K, x2 = 0.6692 | 1001.25 | – | 1.4527 | 1.194
293.15 K, x2 = 0.6833 | – | 153.2 | – | –
293.15 K, x2 = 0.7448 | 1022.04 | – | 1.4589 | 1.354
293.15 K, x2 = 0.7593 | – | 152.9 | – | –
293.15 K, x2 = 0.8192 | 1043.57 | – | 1.4651 | 1.55
293.15 K, x2 = 0.8559 | – | 152 | – | –
293.15 K, x2 = 0.9343 | – | 151.2 | – | –
293.15 K, x2 = 0.9523 | 1084.75 | – | 1.477 | 2.004
293.15 K, x2 = 0.9687 | – | 150.8 | – | –
303.15 K, x2 = 0.0609 | 854.29 | – | 1.4055 | 0.468
303.15 K, x2 = 0.1033 | – | 158.4 | – | –
303.15 K, x2 = 0.1281 | 867.26 | – | 1.4096 | 0.501
303.15 K, x2 = 0.1368 | – | 158.3 | – | –
303.15 K, x2 = 0.2161 | 884.84 | – | 1.4152 | 0.554
303.15 K, x2 = 0.2714 | – | 157.7 | – | –
303.15 K, x2 = 0.3184 | 906.38 | – | 1.4216 | 0.628
303.15 K, x2 = 0.3775 | – | 157.3 | – | –
303.15 K, x2 = 0.4156 | 928.04 | – | 1.4281 | 0.71
303.15 K, x2 = 0.4881 | – | 156.7 | – | –
303.15 K, x2 = 0.5105 | 950.44 | – | 1.4349 | 0.807
303.15 K, x2 = 0.5491 | 959.9 | – | 1.4378 | 0.852
303.15 K, x2 = 0.584 | 968.73 | – | 1.4405 | 0.896
303.15 K, x2 = 0.5877 | – | 156.1 | – | –
303.15 K, x2 = 0.6274 | – | 155.8 | – | –
303.15 K, x2 = 0.6652 | 989.97 | – | 1.4469 | 1.013
303.15 K, x2 = 0.6833 | – | 155.4 | – | –
303.15 K, x2 = 0.7439 | 1011.62 | – | 1.4535 | 1.149
303.15 K, x2 = 0.7593 | – | 154.7 | – | –
303.15 K, x2 = 0.8161 | 1032.51 | – | 1.4595 | 1.286
303.15 K, x2 = 0.8558 | – | 153.8 | – | –
303.15 K, x2 = 0.9343 | – | 152.9 | – | –
303.15 K, x2 = 0.9427 | 1071.55 | – | 1.4703 | 1.623
303.15 K, x2 = 0.9687 | – | 152.7 | – | –
313.15 K, x2 = 0.0723 | 846.13 | – | 1.4004 | 0.428
313.15 K, x2 = 0.1033 | – | 161.5 | – | –
313.15 K, x2 = 0.1209 | 855.52 | – | 1.4034 | 0.452
313.15 K, x2 = 0.1368 | – | 161.3 | – | –
313.15 K, x2 = 0.2135 | 874.07 | – | 1.4093 | 0.497
313.15 K, x2 = 0.2714 | – | 160.6 | – | –
313.15 K, x2 = 0.3285 | 898.41 | – | 1.4171 | 0.566
313.15 K, x2 = 0.3775 | – | 159.9 | – | –
313.15 K, x2 = 0.4268 | 920.49 | – | 1.4237 | 0.64
313.15 K, x2 = 0.4881 | – | 158.9 | – | –
313.15 K, x2 = 0.502 | 938.3 | – | 1.4291 | 0.706
313.15 K, x2 = 0.5525 | 950.72 | – | 1.433 | 0.751
313.15 K, x2 = 0.5877 | – | 158.2 | – | –
313.15 K, x2 = 0.5881 | 959.69 | – | 1.4357 | 0.786
313.15 K, x2 = 0.6274 | – | 158 | – | –
313.15 K, x2 = 0.6613 | 978.86 | – | 1.4415 | 0.872
313.15 K, x2 = 0.6833 | – | 157.4 | – | –
313.15 K, x2 = 0.7441 | 1001.63 | – | 1.4484 | 0.997
313.15 K, x2 = 0.7593 | – | 156.7 | – | –
313.15 K, x2 = 0.8488 | 1032.24 | – | 1.4572 | 1.162
313.15 K, x2 = 0.8558 | – | 155.7 | – | –
313.15 K, x2 = 0.9343 | – | 154.5 | – | –
313.15 K, x2 = 0.9474 | 1063.08 | – | 1.4666 | 1.374
313.15 K, x2 = 0.9687 | – | 154.1 | – | –
